Laboratory results taken from patent publication US12486259B2, “FXR agonist having pyrazine structure, and preparation method and use” (JIANGSU TASLY DIYI PHARMACEUTICAL CO., LTD., priority 2020, dated 2025).

How the values were obtained:
in vitro = conditions: human; for efflux ratio: Caco-2; for Papp B→A: Caco-2, Papp B-A; for recovery: Caco-2, Recovery rate A-B
Procedure: The bi-directional transport of target compounds from apical side (AP) to basolateral side (BL) and from BL side to AP side is studied by using human colon adenocarcinoma cell line Caco-2 monolayer model. The transport parameters, apparent permeability coefficient (Papp) and efflux ratio are calculated by quantitative analysis with high performance liquid chromatography (HPLC).

[1] = tested on: C57/BL6 mice fed MCD diet; test: Pharmacodynamic test in methionine-choline deficient diet (MCD) model of non-alcoholic fatty liver disease; format: in vivo; conditions: for Weight, 0 week / Food intake, 1 week / Weight, 1 week / Food intake, 2 weeks / Weight, 2 weeks / Food intake, 3 weeks / Weight, 3 weeks / Food intake, 4 weeks / Weight, 4 week / liver weight / liver/body weight / ALT, 3 weeks / AST, 3 weeks / ALT, 4 weeks / AST, 4 weeks / HDL (blood lipid) / LDL (blood lipid) / TC (blood lipid) / TG (blood lipid) / HE score / Sirius red staining area / liver TC / liver TG: MCD mice, obeticholic acid 40 mpk; for Weight, 0 week / Weight, 1 week / Weight, 2 weeks / Weight, 3 weeks / Weight, 4 week: TM compounds 30 mpk, once daily by gavage; for Food intake, 1 week / Food intake, 2 weeks / Food intake, 3 weeks / Food intake, 4 weeks / liver weight / liver/body weight / ALT, 3 weeks / AST, 3 weeks / ALT, 4 weeks / AST, 4 weeks / HDL (blood lipid) / LDL (blood lipid) / TC (blood lipid) / TG (blood lipid) / HE score / Sirius red staining area / liver TC / liver TG: TM 30 mpk; for Food intake, 1 week / Food intake, 2 weeks / Food intake, 3 weeks / Food intake, 4 weeks / ALT, 3 weeks / AST, 3 weeks / ALT, 4 weeks / AST, 4 weeks: gavage; for Food intake, 4 weeks / Weight, 4 week / ALT, 4 weeks / AST, 4 weeks / HE score / Sirius red staining area: 4 weeks; for liver weight / liver/body weight / HDL (blood lipid) / LDL (blood lipid) / TC (blood lipid) / TG (blood lipid) / liver TC / liver TG: after 4 weeks; for ALT, 3 weeks / AST, 3 weeks / ALT, 4 weeks / AST, 4 weeks / HDL (blood lipid) / LDL (blood lipid) / TC (blood lipid) / TG (blood lipid): blood; for HE score: liver pathology score (Table 12 criteria); for Sirius red staining area / liver TC / liver TG: liver; for blood lipid levels (in words) / liver triglyceride and cholesterol content (in words) / liver weight and liver/body weight (in words): after 4 weeks of MCD and compounds treatment; for ALT and AST compared to the model group (in words): three weeks after MCD and compounds treatment
Procedure: Animal strain: C57/BL6, Animal Grade: SPF Grade, Gender: male, Animal Age: 8 weeks old, Animals Received Date: 2018 Sep. 28, Animal Source: Shanghai Lingchang Biotechnology Co. Ltd., Animal Certificate No: SCXK (Shanghai)2013-0018 2013001836799, Mouse feeding Environment: temperature 20-26° C., humidity 40-70%, 12 hour day and night cycle.
5% Solutol HS15/Normal saline: after Solutol HS15 (polyethylene glycol 15 hydroxystearate solubilizer) is dissolved in a water bath at 37° C., 5 ml of it is dissolved in 100 ml of normal saline, thoroughly stirred for later use.
Obeticholic acid/5% Solutol HS15/Normal saline: 0.15 ml Solutol HS15 is added to accurately weighed 12 mg obeticholic acid to fully dissolve it, and 2.85 ml normal saline is added, vigorously mixed and dissolved by the ultrasound. • TM-01 Group/5% Solutol HS15/Normal saline: 2.5 ml of 6 mg/ml TM-01 suspension is taken, 2.5 ml of 5% Solutol HS15/normal saline is added, and the mixture is mixed well. • TM-02 Group/5% Solutol HS15/Normal saline: 2.5 ml of 6 mg/ml TM-02 suspension is taken, 2.5 ml of 5% Solutol HS15/normal saline is added, and the mixture is mixed well. • TM-06 Group/5% Solutol HS15/Normal saline: 2.5 ml of 6 mg/ml TM-06 suspension is taken, 2.5 ml of 5% Solutol HS15/Normal saline is added, and the mixture is mixed well. • TM-09 Group/5% Solutol HS15/Normal saline: 2.5 ml of 6 mg/ml TM-09 suspension is taken, 2.5 ml of 5% Solutol HS15/Normal saline is added, and the mixture is mixed well.
Menstruum and test compounds are administered by gavage at a dose volume of 10 ml/kg;
After reaching the animal house, 70 8-week-old C57/BL6 mice are fed adaptively and randomly divided into 7 groups according to body weight after the average body weight reaches 23 g. They are given the model feed. The first group receives the control diet MCS and the remaining groups receive the MCD diet, while each group of mice receives compound treatment as follows: • Group 1. Control Group: MCS, menstruum, administered once daily by gavage; • Group 2. Model Group: MCD, menstruum, administered once daily by gavage; • Group 3. Obeticholic acid group: MCD, 40 mpk obeticholic acid, administered once daily by gavage; • Group 4. TM-01 Group: MCD, 30 mpk TM-01, administered once daily by gavage; • Group 5. TM-02 Group: MCD, 30 mpk TM-02, administered once daily by gavage; • Group 6. TM-06 Group: MCD, 30 mpk TM-06, administered once daily by gavage; • Group 7. TM-09 Group: MCD, 30 mpk TM-09, administered once daily by gavage; 2.4 Experimental Methods
Body weight and food intake are measured weekly during the experiment. Twenty-one days after administration, tail tips are bled with microcapillaries for AST, ALT measurements. Twenty-eight days after administration, mice are terminated, hearts are bled, and liver tissues are collected and weighed. One portion is snap frozen with liquid nitrogen for subsequent analysis and the other portion are fixed for pathological analysis.
Mouse blood is centrifuged at 5000 rpm for 10 minutes and supernatants are collected for determination of TG (triglycerides), TC (total cholesterol), HDL (high density lipoprotein), LDL (low density lipoprotein), AST (aspartate aminotransferase) and ALT (alanine aminotransferase).
AST and ALT after administration for three and four weeks are determined according to the instructions of kit. The blood lipid index 4 weeks after administration is sent to Adicon Medical Laboratory Co. Ltd. for detection.
The livers are removed from −80° C., homogenized in PBS (phosphate buffered saline), extracted with chloroform methanol organic phase, and subjected to TC and TG assays using the kit, normalized for protein content.
Four weeks after administration, the mice are anesthetized. The heart is bled, the liver is isolated and weighed. The right lobe is snapfrozen with liquid nitrogen and stored at −80° C. for liver lipid analysis. The left lobe is isolated and fixed in 10% formalin for subsequent HE and Sirius Red staining. […]

[2] = Caco-2, Papp, A-to-B values (highly permeable substrates)

Compound | efflux ratio (in vitro) | Papp A→B (in vitro; Caco-2, Papp A-B) | Papp A→B (in vitro; Caco-2, Papp A-B, Average) | Papp A→B (in vitro; Caco-2, Papp A-B, Sample-01) | Papp A→B (in vitro; Caco-2, Papp A-B, Sample-02) | Papp B→A (in vitro) | Papp A→B (in vitro; [2]) | recovery (in vitro; Average) | recovery (in vitro; Sample-01) | recovery (in vitro; Sample-02) | Weight, 0 week [1] | Food intake, 1 week [1] | Weight, 1 week [1] | Food intake, 2 weeks [1] | Weight, 2 weeks [1] | Food intake, 3 weeks [1] | Weight, 3 weeks [1] | Food intake, 4 weeks [1] | Weight, 4 week [1] | liver weight [1] | further results
O=C(O)c1cccc(N2CC(O)(c3cnc(OCc4c(-c5c(Cl)cccc5Cl)noc4C4CC4)cn3)C2)c1 [TM-02, 3-(3-(5-((5-cyclopropyl-3-(2,6-dichlorophenyl)isoxazol-4-yl)methoxy)pyrazine-2-yl)-3-hydroxyazetidin-1-yl) benzoic acid] | 3.75 | 88.7 nm/s | 90.2 nm/s | 85.7 nm/s | 94.7 nm/s | 333 nm/s | > 25 nm/s | 70.8% | 64.9% | 76.8% | 23.71 ± 0.35 g | 2.190 ± 0.504 g | 21.52 ± 0.42 g | 2.400 ± 0.288 g | 18.81 ± 0.49 g | 1.688 ± 0.266 g | 16.69 ± 0.34 g | 1.518 ± 0.376 g | 15.48 ± 0.35 g | 0.85 ± 0.05 g | liver/body weight [1]: 5.48 ± 0.28 %; ALT, 3 weeks [1]: 183.36 ± 29.85 U/L; AST, 3 weeks [1]: 113.46 ± 13.79 U/L; ALT, 4 weeks [1]: 90.68 ± 42.13 U/L; AST, 4 weeks [1]: 83.24 ± 12.08 U/L; HDL (blood lipid) [1]: 0.61 ± 0.02 mmol/L; LDL (blood lipid) [1]: 2.93 ± 0.12 mmol/L; TC (blood lipid) [1]: 1.25 ± 0.14 mmol/L; TG (blood lipid) [1]: 0.57 ± 0.06 mmol/L; HE score [1]: 1.4; Sirius red staining area [1]: 0.398 ± 0.030%; liver TC [1]: 41.7 ± 5.73 µmol/g protein; liver TG [1]: 307 ± 26.3 µmol/g protein; blood lipid levels (in words) [1]: different reductions in blood lipids; liver triglyceride and cholesterol content (in words) [1]: different lowering effects; liver weight and liver/body weight (in words) [1]: significantly increases mouse liver weight and liver/body weight; ALT and AST compared to the model group (in words) [1]: showing the same way as the obeticholic acid group
O=C(O)c1cccc(C2CC(O)(c3cnc(OCc4c(-c5c(Cl)cccc5Cl)noc4C4CC4)cn3)C2)c1 (centres unmarked) [TM-01, 3-(3-(5-(5-cyclopropyl-3-(2,6-dichlorophenyl)isoxazole-4-ylmethoxy)-2-pyrazine)-1-hydroxycyclobutane) benzoic acid] | 3.95 | 82.5 nm/s | 81.7 nm/s | 64.2 nm/s | 99.1 nm/s | 326 nm/s | > 25 nm/s | 71.2% | 63.9% | 78.5% | 23.78 ± 0.47 g | 3.011 ± 0.555 g | 21.24 ± 0.42 g | 2.746 ± 0.466 g | 18.49 ± 0.41 g | 1.909 ± 0.215 g | 16.97 ± 0.38 g | 1.697 ± 0.027 g | 14.70 ± 0.20 g | 0.89 ± 0.05 g | liver/body weight [1]: 6.32 ± 0.26 %; ALT, 3 weeks [1]: 41.58 ± 10.32 U/L; AST, 3 weeks [1]: 53.50 ± 19.62 U/L; ALT, 4 weeks [1]: 14.28 ± 13.21 U/L; AST, 4 weeks [1]: 40.36 ± 26.31 U/L; HDL (blood lipid) [1]: 0.59 ± 0.11 mmol/L; LDL (blood lipid) [1]: 2.61 ± 0.26 mmol/L; TC (blood lipid) [1]: 0.95 ± 0.44 mmol/L; TG (blood lipid) [1]: 0.53 ± 0.10 mmol/L; HE score [1]: 1; Sirius red staining area [1]: 0.365 ± 0.069 %; liver TC [1]: 34.9 ± 8.2 µmol/g protein; liver TG [1]: 247 ± 54.1 µmol/g protein; blood lipid levels (in words) [1]: different reductions in blood lipids; liver triglyceride and cholesterol content (in words) [1]: significant lowering effect on liver triglyceride and cholesterol levels; liver weight and liver/body weight (in words) [1]: significantly increases mouse liver weight and liver/body weight; ALT and AST compared to the model group (in words) [1]: significantly reduced
